Key:
Experiment in all cases: relative viability (nuclei count vs DMSO), 5 days (fraction); higher = more cells survive
UMC-11 = tested on: UMC-11
Procedure, shortened: (§1)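 Lung cancer cell lines were seeded in 1536-well plates and dosed by pin tool the next day, with either a single drug or a fixed anchor-drug dose combined with five library-drug doses (not always all listed) spaced in √10 steps. Five days later, one step fixed the cells and stained their nuclei (final 0.05% Triton X-100, 1% formaldehyde, 1 ug/ml Hoechst), and nuclei were counted on 4× images. Relative viability is the nuclei count in treated wells divided by the count in vehicle wells, and each value is the median of duplicate plates.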

EPLC-272H = tested on: EPLC-272H
Procedure, shortened: as §1

EMC-BAC-2 = tested on: EMC-BAC-2
Procedure, shortened: as §1

CAL-12T = tested on: CAL-12T
Procedure, shortened: as §1

COR-L 105 = tested on: COR-L 105
Procedure, shortened: as §1

NCI-H441 = tested on: NCI-H441
Procedure, shortened: as §1

NCI-H358 = tested on: NCI-H358
Procedure, shortened: as §1

HOP-62 = tested on: HOP-62
Procedure, shortened: as §1

NCI-H2126 = tested on: NCI-H2126
Procedure, shortened: as §1

NCI-H1755 = tested on: NCI-H1755
Procedure, shortened: as §1

NCI-H322M = tested on: NCI-H322M
Procedure, shortened: as §1

HCC-15 = tested on: HCC-15
Procedure, shortened: as §1

ChaGo-K-1 = tested on: ChaGo-K-1
Procedure, shortened: as §1

NCI-H1915 = tested on: NCI-H1915
Procedure, shortened: as §1

LXF-289 = tested on: LXF-289
Procedure, shortened: as §1

NCI-H2023 = tested on: NCI-H2023
Procedure, shortened: as §1

HCC-78 = tested on: HCC-78
Procedure, shortened: as §1

NCI-H2085 = tested on: NCI-H2085
Procedure, shortened: as §1

NCI-H3122 = tested on: NCI-H3122
Procedure, shortened: as §1

NCI-H1975 = tested on: NCI-H1975
Procedure, shortened: as §1

NCI-H1666 = tested on: NCI-H1666
Procedure, shortened: as §1

**Q.** What does the source list for O=c1cc(-c2cccc3c2Sc2ccccc2S3)oc(N2CCOCC2)c1 + Nc1nc2[nH]cc(CCc3ccc(C(=O)N[C@@H](CCC(=O)O)C(=O)O)cc3)c2c(=O)[nH]1 [Pemetrexed] (partner 0.2 µM)?
**A.** relative viability (UMC-11; first compound 0.08 µM): 0.823; relative viability (UMC-11; first compound 0.253 µM): 1.04; relative viability (UMC-11; first compound 0.8 µM): 0.82; relative viability (UMC-11; first compound 2.53 µM): 0.791; relative viability (UMC-11; first compound 8 µM): 0.935; relative viability (EPLC-272H; first compound 0.08 µM): 0.296; relative viability (EPLC-272H; first compound 0.253 µM): 0.224; relative viability (EPLC-272H; first compound 0.8 µM): 0.333; relative viability (EPLC-272H; first compound 2.53 µM): 0.304; relative viability (EPLC-272H; first compound 8 µM): 0.197; relative viability (EMC-BAC-2; first compound 0.08 µM): 0.396; relative viability (EMC-BAC-2; first compound 0.253 µM): 0.473; relative viability (EMC-BAC-2; first compound 0.8 µM): 0.442; relative viability (EMC-BAC-2; first compound 2.53 µM): 0.429; relative viability (EMC-BAC-2; first compound 8 µM): 0.463; relative viability (CAL-12T; first compound 0.08 µM): 1.25; relative viability (CAL-12T; first compound 0.253 µM): 1.39; relative viability (CAL-12T; first compound 0.8 µM): 1.18; relative viability (CAL-12T; first compound 2.53 µM): 1.04; relative viability (CAL-12T; first compound 8 µM): 1.03; relative viability (COR-L 105; first compound 0.08 µM): 1.08; relative viability (COR-L 105; first compound 0.253 µM): 0.835; relative viability (COR-L 105; first compound 0.8 µM): 1.1; relative viability (COR-L 105; first compound 2.53 µM): 0.918; relative viability (COR-L 105; first compound 8 µM): 1.14; relative viability (NCI-H441; first compound 0.08 µM): 0.258; relative viability (NCI-H441; first compound 0.253 µM): 0.268; relative viability (NCI-H441; first compound 0.8 µM): 0.255; relative viability (NCI-H441; first compound 2.53 µM): 0.26; relative viability (NCI-H441; first compound 8 µM): 0.241; relative viability (NCI-H358; first compound 0.08 µM): 0.161; relative viability (NCI-H358; first compound 0.253 µM): 0.188; relative viability (NCI-H358; first compound 0.8 µM): 0.183; relative viability (NCI-H358; first compound 2.53 µM): 0.176; relative viability (NCI-H358; first compound 8 µM): 0.175; relative viability (HOP-62; first compound 0.08 µM): 0.322; relative viability (HOP-62; first compound 0.253 µM): 0.305; relative viability (HOP-62; first compound 0.8 µM): 0.406; relative viability (HOP-62; first compound 2.53 µM): 0.396; relative viability (HOP-62; first compound 8 µM): 0.352; relative viability (NCI-H2126; first compound 0.08 µM): 0.682; relative viability (NCI-H2126; first compound 0.253 µM): 0.785; relative viability (NCI-H2126; first compound 0.8 µM): 0.71; relative viability (NCI-H2126; first compound 2.53 µM): 0.695; relative viability (NCI-H2126; first compound 8 µM): 0.645; relative viability (NCI-H1755; first compound 0.08 µM): 0.572; relative viability (NCI-H1755; first compound 0.253 µM): 0.398; relative viability (NCI-H1755; first compound 0.8 µM): 0.389; relative viability (NCI-H1755; first compound 2.53 µM): 0.574; relative viability (NCI-H1755; first compound 8 µM): 0.366; relative viability (NCI-H322M; first compound 0.08 µM): 0.57; relative viability (NCI-H322M; first compound 0.253 µM): 0.61; relative viability (NCI-H322M; first compound 0.8 µM): 0.598; relative viability (NCI-H322M; first compound 2.53 µM): 0.634; relative viability (NCI-H322M; first compound 8 µM): 0.602; relative viability (HCC-15; first compound 0.08 µM): 0.23; relative viability (HCC-15; first compound 0.253 µM): 0.253; relative viability (HCC-15; first compound 0.8 µM): 0.207; relative viability (HCC-15; first compound 2.53 µM): 0.204; relative viability (HCC-15; first compound 8 µM): 0.228; relative viability (ChaGo-K-1; first compound 0.08 µM): 0.251; relative viability (ChaGo-K-1; first compound 0.253 µM): 0.264; relative viability (ChaGo-K-1; first compound 0.8 µM): 0.248; relative viability (ChaGo-K-1; first compound 2.53 µM): 0.287; relative viability (ChaGo-K-1; first compound 8 µM): 0.273; relative viability (NCI-H1915; first compound 0.08 µM): 0.507; relative viability (NCI-H1915; first compound 0.253 µM): 0.442; relative viability (NCI-H1915; first compound 0.8 µM): 0.552; relative viability (NCI-H1915; first compound 2.53 µM): 0.52; relative viability (NCI-H1915; first compound 8 µM): 0.405; relative viability (LXF-289; first compound 0.08 µM): 0.95; relative viability (LXF-289; first compound 0.253 µM): 0.96; relative viability (LXF-289; first compound 0.8 µM): 0.975; relative viability (LXF-289; first compound 2.53 µM): 0.93; relative viability (LXF-289; first compound 8 µM): 1.03; relative viability (NCI-H2023; first compound 0.08 µM): 0.222; relative viability (NCI-H2023; first compound 0.253 µM): 0.3; relative viability (NCI-H2023; first compound 0.8 µM): 0.198; relative viability (NCI-H2023; first compound 2.53 µM): 0.213; relative viability (NCI-H2023; first compound 8 µM): 0.221; relative viability (HCC-78; first compound 0.08 µM): 0.914; relative viability (HCC-78; first compound 0.253 µM): 0.943; relative viability (HCC-78; first compound 0.8 µM): 0.946; relative viability (HCC-78; first compound 2.53 µM): 0.882; relative viability (HCC-78; first compound 8 µM): 0.928; relative viability (NCI-H2085; first compound 0.08 µM): 0.828; relative viability (NCI-H2085; first compound 0.253 µM): 0.962; relative viability (NCI-H2085; first compound 0.8 µM): 0.934; relative viability (NCI-H2085; first compound 2.53 µM): 0.757; relative viability (NCI-H2085; first compound 8 µM): 0.773; relative viability (NCI-H3122; first compound 0.08 µM): 0.205; relative viability (NCI-H3122; first compound 0.253 µM): 0.197; relative viability (NCI-H3122; first compound 0.8 µM): 0.186; relative viability (NCI-H3122; first compound 2.53 µM): 0.191; relative viability (NCI-H3122; first compound 8 µM): 0.18; relative viability (NCI-H1975; first compound 0.08 µM): 0.318; relative viability (NCI-H1975; first compound 0.253 µM): 0.29; relative viability (NCI-H1975; first compound 0.8 µM): 0.313; relative viability (NCI-H1975; first compound 2.53 µM): 0.287; relative viability (NCI-H1975; first compound 8 µM): 0.288; relative viability (NCI-H1666; first compound 0.08 µM): 0.844; relative viability (NCI-H1666; first compound 0.253 µM): 0.913; relative viability (NCI-H1666; first compound 0.8 µM): 0.762; relative viability (NCI-H1666; first compound 2.53 µM): 0.758; relative viability (NCI-H1666; first compound 8 µM): 0.793

Reference: the supplement of paper PMC10307832
